Measured values from patent US20140288040A1, “SUBSTITUTED BENZYLAMINE COMPOUNDS, THEIR USE IN MEDICINE, AND IN PARTICULAR THE TREATMENT OF HEPATITIS C VIRUS (HCV) INFECTION” (ASTEX THERAPEUTICS LIMITED, priority 2011, published 2014).
Structures can show the parent of a compound that is named as a salt. Where two headings read alike, the source gives them in different places.

Experiments:
[1] = system: HCV subgenomic replicon in Huh-7 cells; experiment: Replicon assay, EC50 luciferase readout; format: cell-based, hepatitis C virus (HCV)
Experimental: The activities of compounds of the invention against HCV in a cellular environment were analysed using a replicon assay as described below.
Thus, Huh-7 cells persistently infected with an HCV-RNA construct (Bartenschlager, R. Hepatitis C replicons: potential role for drug development. Nature Rev. Drug Discov. 1, 911-916 (2002)) comprising: 5′ and 3′ non-translated regions (NTR); the non-structural genes NS3 to NS5b; as well as the G418 drug resistance gene, neomycin, (for selection of cells carrying HCV replicon RNA) fused to the firefly Luciferase reporter gene (pFK13889luc-ubi-neoNS3-3′ET), were used to determine the cell based antiviral activity of compounds using luciferase activity as an indirect readout of HCV RNA load. In this assay […] huh-7 cells persistently infected with the HCV subgenomic replicon construct above were platedwell in a 96 well tissue culture plate. The cells were allowed to attach overnight in DMEM medium supplemented with 10% FBS 1% NEAA, and 250 μgml gentamicin. The following day the medium was replaced with 200 μlwell of fresh medium as described above lacking gentamicin. […] Plates were then incubated at 37° C. in an atmosphere of 5% CO2 and air for 72 h. […] The plate was then read at 535 nm (excitation) and 590 nm (emission) on a SpectraMax Gemini reader (Molecular Devices) to determine the number of viable cells by measuring the conversion of rezasurin (Alamar blue) to resorufin in response to mitochondrial activity. In order to determine the antiviral effect of these compounds EC50 values were determined by measuring the luciferase activity of the cells. Alamar blue solution was removed from the wells and replaced with 100 μlwell of medium along with 100 μlwell of Bright-Glo reagent and incubated at room temperature for 5 minutes before transferring 100 μlwell to a white bottom 96 well plate to read in a luminometer as described in the Bright-Glo Luciferase Assay System protocol (promega).

[2] = biological target: T1, HCV NS3 protease (full length NS34a) (Hepatitis C virus genotype 1b, UniProt P26663); experiment: HCV NS3 protease assay (FRET, full length NS34a); format: biochemical
T1 construct: The protease activity of the full length NS34a was measured using a FRET-based assay; made in house
T1 sequence (P26663 1658-1711): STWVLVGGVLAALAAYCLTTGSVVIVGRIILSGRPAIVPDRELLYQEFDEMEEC
T1 sequence (P26663 1027-1657): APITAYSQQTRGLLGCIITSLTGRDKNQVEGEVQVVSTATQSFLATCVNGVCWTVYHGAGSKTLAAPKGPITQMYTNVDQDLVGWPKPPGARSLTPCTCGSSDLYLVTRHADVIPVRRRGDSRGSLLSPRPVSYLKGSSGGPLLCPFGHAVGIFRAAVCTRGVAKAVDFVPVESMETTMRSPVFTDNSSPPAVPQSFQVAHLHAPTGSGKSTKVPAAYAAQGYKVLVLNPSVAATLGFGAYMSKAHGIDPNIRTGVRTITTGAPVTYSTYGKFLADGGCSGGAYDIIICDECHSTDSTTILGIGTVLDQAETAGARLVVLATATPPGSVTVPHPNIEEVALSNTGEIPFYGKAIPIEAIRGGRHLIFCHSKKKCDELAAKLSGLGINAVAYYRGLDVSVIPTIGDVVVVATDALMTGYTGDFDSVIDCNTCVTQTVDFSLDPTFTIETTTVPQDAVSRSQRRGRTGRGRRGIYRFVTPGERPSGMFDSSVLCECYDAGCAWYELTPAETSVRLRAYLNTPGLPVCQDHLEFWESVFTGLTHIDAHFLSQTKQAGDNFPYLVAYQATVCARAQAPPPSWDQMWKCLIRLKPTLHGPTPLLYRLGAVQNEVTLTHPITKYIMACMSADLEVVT
Experimental: The HCV NS3 protease functions have been extensively studied and are considered as potential targets for antiviral therapy: see for example the many references listed in the introductory section of this application. Therefore, the activity of the compounds of the invention as anti-HCV agents was assessed using a full length HCV NS3 protease.
The protease activity of the full length NS34a was measured using a FRET-based assay utilizing a peptide substrate derived from the NS4AB cleavage site (Anaspec) and labelled at one end with a quencher (QXL520) and at the other with a fluorophore (5-FAMsp). NS34a (produced in-house by literature methods) was incubated with test compounds and peptide substrate in 50 mM Tris pH8, 20 mM DTT, 1% CHAPS, 10% glycerol and 5% DMSO. The reaction was followed by monitoring the change in fluorescence on a Molecular Devices Gemini plate reader for 30 minutes at room temperature. Initial rates were calculated from the progress curves using SoftMax Pro (Molecular Devices). IC50 values were then calculated from replicate curves using Prism GraphPad software.

[3] = Hepatitis C virus, Huh-7, 72 h, Huh-7 replicon cells, 72 h, single value, or second value of a pair x:y, read-out: Activity EC50 (μM) (EC50 luciferase readout)
[4] = IC50 values of 10-150 μM against the protease activity of the full length NS34a, or at least 40% inhibition of protease activity at a concentration of 100 μM
[5] = protease activity of full length NS34a, FRET peptide substrate, read-out: Activity IC50

Row | Compound | IC50 [2, 4] [µM] | IC50 [2, 5] [µM] | also measured
1 | CC(C)(C)OC(=O)N[C@H]1CCCCC/C=C\[C@@H]2C[C@@]2(C(=O)NS(=O)(=O)C2CC2)NC(=O)[C@@H]2C[C@@H](OC(=O)N3Cc4cccc(F)c4C3)CN2C1=O [Danoprevir, reference compound] |  |  | EC50 ([1]; Hepatitis C virus, Huh-7, replicon assay, set in line with previous observations, read-out: pre-determined EC50 set for the combination experiments): 0.001 µM
2 | CCC(NC1CCCNC1)c1ccc(F)c(Oc2ccccc2)c1F (centres unmarked) [Example 18] |  |  | EC50 ([1]; Huh-7 replicon cells, 72 h, single value, or second value of a pair x:y, read-out: Activity EC50 (μM) (EC50 luciferase readout)): 1.6 µM
3 | CCNC(=O)CNC(=O)C[C@H](C)N[C@H](CC)c1ccc(Cl)c(Oc2ccccc2)c1F [Example 243] |  |  | EC50 [1, 3]: 3.8 µM
4 | CCC(NCc1ccc[nH]1)c1ccc(F)c(Oc2ccccc2)c1F (centres unmarked) [Example 291] | 10 to 150 |  | 
5 | CCC(NCc1ncc[nH]1)c1ccc(F)c(Oc2ccccc2)c1F (centres unmarked) [Example 292] | 10 to 150 |  | 
6 | NC(CCO)c1ccc(F)c(Oc2ccccc2)c1F (centres unmarked) [Example 294, 3-Amino-3-(2,4-difluoro-3-phenoxy-phenyl)-propan-1-ol.hydrochloride] | 10 to 150 |  | 
7 | C[C@@H](CC(N)=O)N[C@@H](c1ccc(Cl)c(Oc2ccccc2)c1F)C1CCOCC1 [Example 299] | 10 to 150 |  | 
8 | CC[C@H](NCC(N)=O)c1ccc(F)c(Oc2ccccc2)c1F [Example 301] |  |  | EC50 [1, 3]: 26 µM
9 | CC[C@H](NCCC(=O)NO)c1ccc(F)c(Oc2ccccc2)c1F [Example 302] |  |  | EC50 [1, 3]: 6.9 µM
10 | CC[C@@H](N[C@H](C)CC(=O)NC(C)C)c1ccc(Cl)c(Oc2ccccc2)c1F [Example 304] | 10 to 150 |  | 
11 | CC[C@@H](N[C@H](C)CC(=O)NOC)c1ccc(Cl)c(Oc2ccccc2)c1F [Example 307] | 10 to 150 |  | 
12 | CC[C@@H](N[C@H](C)CC(=O)NCC(=O)OC)c1ccc(Cl)c(Oc2ccccc2)c1F [Example 308] | 10 to 150 |  | 
13 | CC[C@@H](N[C@H](C)CC(N)=O)c1ccc(Cl)c(Oc2ccc(-c3cnco3)c(C)c2)c1F [Example 318] |  | 6.4 | 
14 | CC[C@@H](N[C@@H](C)CC(=O)N[C@H]1C[C@@H](N)C1)c1ccc(Cl)c(Oc2ccccc2)c1F [Example 320] | 10 to 150 |  | 
15 | CC[C@@H](N[C@@H](C)CC(=O)NCCNC1CC1)c1ccc(Cl)c(Oc2ccccc2)c1F [Example 321] |  | 1.6 | 
16 | CC[C@@H](N[C@H](C)CC(N)=O)c1ccc(Cl)c(Oc2ccc3c(c2)C(C)(C)CN3)c1F [Example 323] |  | 3.1 | 
17 | C[C@@H](CC(N)=O)NCc1ccc(F)c(Oc2ccccc2)c1F [Example 326] |  | 3.9 | 
18 | C[C@H](CC(N)=O)NCc1ccc(F)c(Oc2ccccc2)c1F [Example 327] | 10 to 150 |  | 
19 | C[C@@H](CC(N)=O)NCc1ccc(Cl)c(Oc2ccccc2)c1F [Example 328] |  | 1.4 | 

Row | Compound | IC50 [2, 4] [µM] | IC50 [2, 5] [µM] | also measured
20 | CC[C@H](Nc1ncc(CN)cn1)c1ccc(Cl)c(Oc2ccccc2)c1F [Example 330] |  | 1.1 | 
21 | CC[C@@H](N[C@@H](C)C(=O)N(C)C)c1ccc(Cl)c(Oc2ccccc2)c1F [Example 332] | 10 to 150 |  | 
22 | CC[C@@H](N[C@@H](C)CC(N)=O)c1ccc(Cl)c(Oc2ccc(F)cc2N)c1F [Example 334] | 10 to 150 |  | 
23 | C[C@H](CC(N)=O)N[C@H](C)c1ccc(Cl)c(Oc2ccccc2)c1F [Example 335] | 10 to 150 |  | 
24 | C[C@@H](CC(N)=O)N[C@H](C)c1ccc(Cl)c(Oc2ccccc2)c1F [Example 336] |  | 1 | 
25 | COCC[C@@H](N)c1ccc(Cl)c(Oc2ccccc2)c1F [Example 337, (R)-1-(4-Chloro-2-fluoro-3-phenoxy-phenyl)-3-methoxy-propylamine hydrochloride] |  | 7.6 | 
26 | N[C@@H](CCO)c1ccc(Cl)c(Oc2ccccc2)c1F [Example 338, 3-Amino-3-(4-chloro-2-fluoro-3-phenoxy-phenyl)-propan-1-ol.hydrochloride] |  | 2 | 
27 | C[C@@H](CC(=O)NCCN)N[C@H](C)c1ccc(Cl)c(Oc2ccccc2)c1F [Example 339] |  |  | inhibition at 0.01 µM ([2]; read-out: Activity % inhibition @ 0.01 μM, 0.01 μM compound): 65%
28 | C[C@H](CC(=O)NCCN)N[C@H](C)c1ccc(Cl)c(Oc2ccccc2)c1F [Example 340] |  | 0.08 | 
29 | C[C@@H](N)c1ccc(Cl)c(Oc2ccccc2)c1F [Example 341] | 10 to 150 |  | 
30 | C[C@H](N)c1ccc(Cl)c(Oc2ccccc2)c1F [Example 342] |  | 2.7 | 
31 | N[C@H](CCO)c1ccc(Cl)c(Oc2ccccc2)c1F [Example 343] |  | 6.3 | 
32 | N[C@H](c1ccc(Cl)c(Oc2ccccc2)c1F)C1CCOCC1 [Example 344] |  | 1.5 | 
33 | Cc1cc(Oc2c(Cl)ccc([C@@H](N)C3CCOCC3)c2F)ccc1[N+](=O)[O-] [Example 345] |  | 1.8 | 
34 | CCC(CC)[C@@H](N)c1ccc(Cl)c(Oc2ccccc2)c1F [Example 346] |  | 5 | 
35 | CCC(CC)[C@H](N)c1ccc(Cl)c(Oc2ccccc2)c1F [Example 347] |  | 2.7 | 
36 | C[C@H](CC(N)=O)N[C@H](c1ccc(Cl)c(Oc2ccccc2)c1F)C1CCOCC1 [Example 348] |  | 10 | 
37 | C[C@@H](CC(N)=O)N[C@@H](CCO)c1ccc(Cl)c(Oc2ccccc2)c1F [Example 350] |  | 2.6 | 
38 | C[C@H](CC(=O)NCCN)N[C@@H](CC1CCOCC1)c1ccc(Cl)c(Oc2ccccc2)c1F [Example 351] |  | 6.4 | 

Row | Compound | IC50 [2, 4] [µM] | IC50 [2, 5] [µM] | also measured
39 | C[C@@H](CC(=O)NCCN)N[C@@H](CC1CCOCC1)c1ccc(Cl)c(Oc2ccccc2)c1F [Example 352] |  | 0.32 | 
40 | C[C@H](CC(N)=O)N[C@H](CCO)c1ccc(Cl)c(Oc2ccccc2)c1F [Example 353] | 10 to 150 |  | 
41 | NC(=O)C[C@@H](N)c1ccc(Cl)c(Oc2ccccc2)c1F [Example 354] | 10 to 150 |  | 
42 | CC[C@@H](N)c1ccc(Cl)c(Oc2ccc(NC(C)=O)nc2)c1F [Example 355] | 10 to 150 |  | 
43 | N[C@@H](c1ccc(Cl)c(Oc2ccccc2)c1F)C1CCOCC1 [Example 356] |  | 6.4 | 
44 | N[C@H](CCF)c1ccc(Cl)c(Oc2ccccc2)c1F [Example 357, (R)-1-(4-Chloro-2-fluoro-3-phenoxy-phenyl)-3-fluoro-propylamine.hydrochloride] |  | 5.7 | 
45 | C[C@@H](CC(N)=O)N[C@H](CCO)c1ccc(Cl)c(Oc2ccccc2)c1F [Example 358] |  | 0.91 | 
46 | CN[C@H](CCOC)c1ccc(Cl)c(Oc2ccccc2)c1F [Example 359] | 10 to 150 |  | 
47 | CC[C@@H](N[C@@H](C)CC(N)=O)c1ccc(Cl)c(Oc2ccc(Cl)cc2)c1F.Cl [Example 400] |  |  | EC50 [1, 3]: 3 µM
48 | CC[C@@H](N[C@@H](C)CC(N)=O)c1ccc(Cl)c(Oc2ccc(N)cc2)c1F.Cl [Example 404] |  |  | EC50 [1, 3]: 0.023 µM
49 | CC[C@@H](N[C@@H](C)CC(N)=O)c1ccc(Cl)c(Oc2ccc(NC(C)=O)cc2)c1F [Example 405] |  |  | EC50 [1, 3]: 0.3 µM
50 | CC[C@@H](N[C@@H](C)CC(N)=O)c1ccc(Cl)c(Oc2ccc(NC(=O)N(C)C)cc2)c1F.Cl [Example 407] |  |  | EC50 [1, 3]: 0.11 µM
51 | CC[C@@H](N[C@@H](C)CC(N)=O)c1ccc(Cl)c(Oc2ccc3c(c2)OCCN3)c1F.Cl [Example 409] |  |  | EC50 [1, 3]: 0.02 µM
52 | CC[C@@H](N[C@@H](C)CC(N)=O)c1ccc(Cl)c(Oc2ccc3c(c2)OCCO3)c1F.Cl [Example 410] |  |  | EC50 [1, 3]: 0.31 µM
53 | CC[C@@H](N[C@@H](C)CC(N)=O)c1ccc(Cl)c(Oc2ccccn2)c1F.Cl [Example 413] |  |  | EC50 [1, 3]: 3 µM
54 | CC[C@@H](N[C@@H](C)CC(N)=O)c1ccc(Cl)c(Oc2ccc(-c3ccn[nH]3)cc2)c1F.Cl [Example 417] |  |  | EC50 [1, 3]: 0.91 µM
55 | CC[C@@H](N[C@@H](C)CC(N)=O)c1ccc(Cl)c(Oc2ccc(F)c(C(N)=O)c2)c1F.Cl [Example 419] |  |  | EC50 [1, 3]: 0.82 µM
56 | CC[C@@H](N[C@@H](C)CC(N)=O)c1ccc(Cl)c(Oc2ccc(F)c(C(=O)NC)c2)c1F.Cl [Example 421] |  |  | EC50 [1, 3]: 0.4 µM
